Data: patent EP2982745A1, “Method for expanding immune cells” (Johann Wolfgang Goethe-Universität, Frankfurt am Main, priority 2014, dated 2016)

Experiments:
Primary NK cells [1] = experiment: Proliferation assay of primary NK cells (relative cell counts, Trypan blue); type: cell-based, human; settings: IL-2/-15/SPV-106 at 5 µM; after 10 days of culture; n = 3; figure 2
Procedure: (§1) NKL cell line was grown in Iscove's Modified Dulbecco's Medium (IMDM-Lonza) supplemented with 20% fetal bovine serum and recombinant human interleukine 2 (IL-2, 100 U/ml). Proliferation assay was performed by culturing 2x10^5 NKL cells/ml (96 multiwell; Nunc Thermo Scientific) in 200 µl growth medium supplemented with IL-2 (100 U/ml); IL-2/-15 (10 ng/ml); or IL-2/-15/SPV-106 5µM. Cells were counted and culture medium was changed every three days. Primary NK cells were isolated from peripheral blood of healthy donors using different methods of NK cell isolation (such as Easy Sep Human NK Cell Enrichment Kit, Stem cell Technologies or Human NK Cell Negative Selection Kit, Miltenyi). Proliferation assay was performed by culturing 2x10^6 primary NK cells/ml (24 multiwell ) in 1 ml growth medium supplemented with IL-2 (100 U/ml)/IL-15 (10 ng/ml); or IL-2/-15/SPV-106 5µM. Cells were counted and culture medium was changed every three days. Average of relative cell counts was determined microscopically using Trypan blue staining to exclude death or damaged cells.
Primary NK cells isolated from peripheral blood were cultured in growth medium for 10 days in presence of IL-2/-15, or IL-2/-15/SPV-106 (5µM). At 3, 6 and 10 days cells were counted. Average of relative cell counts in comparison of 100% at day 0 is shown in the graph of figure 2 (n = 3 at each time point).

K562 target cells = experiment: Europium release cytotoxicity assay of expanded NK cells; type: cell-based, human; settings: NK cells expanded by cytokines and 5µM SPV-106; E/T ratios 2.5:1, 5:1, 10:1; 4 h; figure 4
Source text: Effector cells were generated prepared as described above. As target cells, K562, a human chronic myelogenous leukemia cell line, […], were maintained in culture in RPMI 1640 medium supplemented with 10% fetal bovine serum. The medium was changed three times a week, and the cells were in the log phase of growth when used as targets in cytotoxicity assays. About 5 x10^6 target cells were washed in saline to reduce extracellular Ca^+2 content. The cell pellet was resuspended in 1 ml of labeling buffer supplemented with […] Eu(DH3C00)^3+, 100 mM DTPA, and 0.5 mg of dextran sulfate. This cell suspension was incubated for 20 min at room temperature with occasional shaking. The labeling process was stopped by the addition of […] of 100 mM CaCl2 solution per ml. After 5 min of continued incubation, the cells were washed three times in 30 ml of repair buffer and then one to two times in 10 ml of medium and were finally resuspended in CM at a concentration of 5 x 10^4 cells/ml. […] The percentage of specific cytotoxicity was calculated as follows: ((experimental release (counts)-spontaneous release (counts)) : (maximal release (counts)-spontaneous release (counts)) x 100.
Killing activity of K562 target cells was assessed by Europium Assay as described in the following Material and Methods section.

NKL cell line = experiment: Proliferation assay of NKL cell line (cell counts); type: cell-based; settings: IL-2/-15/SPV-106 (5µM); already after 3 days of culture; counted at 3, 6 and 10 days; n = 7; figure 1
Procedure: as §1
NKL cells were cultured in growth medium for 10 days in presence of IL-2, IL-2/-15, or IL-2/-15/SPV-106 (5µM). SPV-106 is the selective activator of histone acetylase PCAF. At 3, 6 and 10 days cells were counted. Average cell number (x 10^4) is shown in the graph of figure 1 (n = 7 at each time point). […]

Primary NK cells [2] = experiment: NK cell subset distribution during expansion (flow cytometry); type: cell-based, human; settings: IL-2/-15/SPV-106 at 5µM; 3, 6 and 10 days; n = 3; figure 3
Procedure: as §1
Primary NK cells were cultured in growth medium for 10 days in presence of IL-2/-15, IL 2/-15, or IL-2/-15/ SPV-106 (at 5µM). At 3, 6 and 10 the NK cell subset distribution (CD56^high : CD56^dim) was analysed by flow cytometry. Average of the NK cell subset ratio is shown in the graph of figure 3 (n = 3 at each time point).

CCCCCCCCCCCCCCC=C(C(=O)OCC)C(=O)OCC [SPV-106]
primary NK cell proliferation (average of relative cell counts in comparison of 100% at day 0) (Primary NK cells [1]): enhances primary NK cell proliferation
cytotoxic capacity (killing activity of K562 target cells) (K562 target cells): retained cytotoxic capacity
NKL cell line proliferation (average cell number) (NKL cell line): enhances NKL cell line proliferation
NK cell subset distribution (CD56^high : CD56^dim) (Primary NK cells [2]): did not change the naturally occurring NK subset distribution
